Measurements taken from patent publication US6767991B1, “Hepatitis C inhibitor peptides” (priority 1997, dated 2004).
Like-named read-outs stand apart in the source and are kept apart here. Where a SMILES comes first, the peptide text is derived from it. [ ]: non-standard residue; d: D form. The star is where a group is joined. Acca(2-Et,1R,2R) = CC[C@@H]1C[C@]1(N)C(=O)O; CH2(1-naphthyl) = c1ccc2c(C*)cccc2c1; Hyp = O=C(O)[C@@H]1C[C@@H](O)CN1; Chg = N[C@H](C(=O)O)C1CCCCC1; Nva = CCC[C@H](N)C(=O)O; X1 = c1ccc2cc(C*)ccc2c1; Ac3c = NC1(C(=O)O)CC1; Bn = c1ccc(C*)cc1

How the values were obtained:
[1] = molecular target: T1, HCV NS3 protease type 1b/NS4A cofactor peptide (Hepatitis C virus genotype 1b, UniProt P26663); assay: Recombinant HCV NS3 protease/NS4A cofactor peptide radiometric assay; format: biochemical, HCV genotype 1b
T1 construct: recombinant HCV NS3 protease (amino acid 1027 to 1206) was cloned in the pET11d bacterial expression vector; made in house; host or cells: E. coli BL21(DE3)pLysS
T1 sequence (P26663 1027-1206, other chains not shown): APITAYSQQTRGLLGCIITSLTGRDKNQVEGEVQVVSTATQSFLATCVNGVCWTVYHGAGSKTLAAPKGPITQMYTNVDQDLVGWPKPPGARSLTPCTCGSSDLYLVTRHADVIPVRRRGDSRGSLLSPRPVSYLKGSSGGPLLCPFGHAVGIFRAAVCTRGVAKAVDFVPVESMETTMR

human leukocyte elastase = molecular target: T2, human leukocyte elastase (Homo sapiens, UniProt P08246); assay: Specificity assay: human leukocyte elastase; format: biochemical
T2 sequence (P08246 30-267): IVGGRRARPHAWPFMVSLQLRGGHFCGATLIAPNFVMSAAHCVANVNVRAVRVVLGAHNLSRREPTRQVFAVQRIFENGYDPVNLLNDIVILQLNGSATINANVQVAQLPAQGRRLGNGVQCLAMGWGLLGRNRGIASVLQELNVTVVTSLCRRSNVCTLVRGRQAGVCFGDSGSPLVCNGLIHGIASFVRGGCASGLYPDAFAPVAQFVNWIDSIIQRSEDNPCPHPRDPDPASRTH
Procedure: (§1) The final conditions for each assay were as follows:
[100 μM Succ-AAPF-pNA [SEQ. ID NO.
(§2) The percentage of inhibition was calculated using the formula:
(§3) [1-((UVinn-UVblank)/(UVctl-UVblank))]×100

[2] = molecular target: porcine pancreatic elastase (Sus scrofa, UniProt P00772); assay: biochemical
porcine pancreatic elastase, sequence (P00772 27-266): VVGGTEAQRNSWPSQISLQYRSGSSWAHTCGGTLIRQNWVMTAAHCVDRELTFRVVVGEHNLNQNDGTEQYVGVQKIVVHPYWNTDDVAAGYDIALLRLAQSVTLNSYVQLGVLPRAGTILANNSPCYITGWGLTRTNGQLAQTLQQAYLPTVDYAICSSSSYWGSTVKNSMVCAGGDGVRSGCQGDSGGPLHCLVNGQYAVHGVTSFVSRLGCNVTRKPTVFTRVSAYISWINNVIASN
Procedure: (§4) The specificity of the compounds was determined against a variety of serine proteases: human leukocyte elastase, porcine pancreatic elastase and bovine pancreatic α-chymotrypsin and one cysteine protease: human liver cathepsin B. In all cases a 96-well plate format protocol using a colorimetric p-nitroaniline (pNA) substrate specific for each enzyme was used. Each assay included a 1 h enzyme-inhibitor pre-incubation at 30° C. followed by addition of substrate and hydrolysis to ≈30% conversion as measured on a UV Thermomax® microplate reader. Substrate concentrations were kept as low as possible compared to KM to reduce substrate competition. Compound concentrations varied from 300 to 0.06 μM depending on their potency. The final conditions for each assay were as follows:
(§5) 50 mM Tris-HCl pH 8, 0.5 M Na2SO4, 50 mM NaCl, 0.1 mM EDTA, 3% DMSO, 0.01% Tween-20 with;
[100 μM Succ-AAPF-pNA [SEQ. […] 7] and 250 pM α-chymotrypsin], [133 μM Succ-AAA-pNA and 8 nM porcine elastase], [133 μM Succ-AAV-pNA and 8 nM leukocyte elastase]; or
A representative example is summarized below for porcine pancreatic elastase: In a polystyrene flat-bottom 96-well plate were added using a Biomek liquid handler (Beckman):
40 μL of assay buffer (50 mM Tris-HCl pH 8, 50 mM NaCl, 0.1 mM EDTA);
20 μL of enzyme solution (50 mM Tris-HCl pH 8, 50 mM NaCl, 0.1 mM EDTA, 0.02% Tween-20, 40 nM porcine pancreatic elastase); and
20 μL of inhibitor solution (50 mM Tris-HCl, pH 8, 50 mM NaCl, 0.1 mM EDTA, 0.02% Tween-20, 1.5 mM-0.3 μM inhibitor, 15% v/v DMSO).
After 60 min pre-incubation at 30° C., 20 μL of substrate solution (50 mM Tris/HCl, pH 8, 0.5 M Na2SO4, 50 mM NaCl, 0.1 mM EDTA, 665 μM Succ-AAA-pNA) were added to each well and the reaction was further incubated at 30° C. for 60 min after which time the absorbance was read on the UV Thermomax® plate reader. Rows of wells were allocated for controls (no inhibitor) and for blanks (no inhibitor and no enzyme). The sequential 2-fold dilutions of the inhibitor solution were performed on a separate plate by the liquid handler using 50 mM Tris-HCl pH 8, 50 mM NaCl, 0.1 mM EDTA, 0.02% Tween-20, 15% DMSO. All other specificity assays were performed in a similar fashion.
A non-linear curve fit with the Hill model was applied to the inhibition-concentration data, and the 50% effective concentration (IC50) was calculated by the use of SAS software (Statistical Software System; SAS Institute, Inc., Cary, N.C.).

NS3 protease = NS3 protease (Hepatitis C virus genotype 1b, UniProt P26663); assay: Inhibition of NS3 protease by N-terminal cleavage product (assay not specified); format: biochemical, HCV; conditions: N-terminal cleavage product of an analog of a natural substrate
NS3 protease, sequence (P26663 1027-1208): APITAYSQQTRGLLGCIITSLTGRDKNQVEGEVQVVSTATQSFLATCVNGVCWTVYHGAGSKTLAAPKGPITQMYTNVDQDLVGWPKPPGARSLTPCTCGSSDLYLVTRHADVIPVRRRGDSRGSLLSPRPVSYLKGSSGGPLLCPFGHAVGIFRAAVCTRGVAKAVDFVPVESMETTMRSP

[3] = molecular target: bovine pancreatic α-chymotrypsin (Bos taurus, UniProt P00766); assay: biochemical
Procedure: as §4, §5
After 60 min pre-incubation at 30° C., 20 μL of substrate solution (50 mM Tris/HCl, pH 8, 0.5 M Na2SO4, 50 mM NaCl, 0.1 mM EDTA, 665 μM Succ-AAA-pNA) were added to each well and the reaction was further incubated at 30° C. for 60 min after which time the absorbance was read on the UV Thermomax® plate reader. Rows of wells were allocated for controls (no inhibitor) and for blanks (no inhibitor and no enzyme). […]
The percentage of inhibition was calculated using the formula: […]

human liver cathepsin B = molecular target: T3, human liver cathepsin B (Homo sapiens, UniProt P07858); assay: Specificity assay: human liver cathepsin B; format: biochemical
T3 construct: from tissue; host or cells: human liver
Procedure: as §1
[100 mM NaHPO4 pH 6, 0.1 mM EDTA, 3% DMSO, 1 mM TCEP, 0.01% Tween-20, 30 μM Z-FR-pNA and 5 nM cathepsin B (tile stock enzyme was activated in buffer containing 20 mM TCEP before use)].
as §2, §3

[4] = IC50, Table 2, unmarked values: NS3 protease/NS4A cofactor peptide radiometric assay
[5] = Table 2, human leukocyte elastase, read-out: HLE
[6] = Table 5, first line of the cell, NS3 protease/NS4A cofactor peptide radiometric assay (Example 38), read-out: IC50

Compound | IC50 (human leukocyte elastase) | IC50 [2] | IC50 [1, 4] | IC50 (human leukocyte elastase; [5]) | further results
CCC[C@H](NC(=O)[C@@H]1CCCN1C(=O)[C@@H](NC(=O)[C@@H](NC(=O)[C@H](CC(=O)O)NC(=O)[C@H](CC(=O)O)NC(C)=O)[C@@H](C)CC)C(C)C)C(=O)O [compound 123] | > 300 µM | > 300 µM |  |  | IC50 ([1]; Table 1, unmarked values: NS3 protease/NS4A cofactor peptide radiometric assay, read-out: IC50): 220 µM
Ac-DDIVPC-OH [Ac-D-D-I-V-P-C-OH] |  |  |  |  | inhibition of NS3 protease (NS3 protease): inhibitory
CC(=O)N[C@@H](CC(=O)O)C(=O)N[C@H](CCC(=O)O)C(=O)N[C@H](C(=O)N[C@H](C(=O)N1C[C@H](OCc2ccccc2)C[C@H]1C(=O)N[C@@H](CS)C(=O)O)C(C)C)C1CCCCC1 [compound 210] (Ac-D[dE][Chg]V[Hyp](Bn)C-OH) |  | > 300 µM | 0.033 µM | > 300 µM | IC50 [3]: > 300 µM
CCC[C@H](NC(=O)[C@@H]1C[C@@H](OCc2ccc3ccccc3c2)CN1C(=O)[C@@H](NC(=O)[C@@H](NC(=O)[C@@H](CCC(=O)O)NC(=O)[C@H](CC(=O)O)NC(C)=O)C1CCCCC1)C(C)C)C(=O)O [compound 214] (Ac-D[dE][Chg]V[Hyp](X1)[Nva]-OH) | > 300 µM | > 300 µM |  |  | IC50 ([1]; Table 2, unmarked values: NS3 protease/NS4A cofactor peptide radiometric assay, read-out: IC50): 0.028 µM; IC50 (human liver cathepsin B): > 300 µM; IC50 [3]: > 300 µM
CC[C@H](C)[C@H](NC(=O)[C@@H](CCC(=O)O)NC(=O)[C@H](CC(=O)O)NC(C)=O)C(=O)N[C@H](C(=O)N1C[C@H](OCc2ccccc2)C[C@H]1C(=O)NC1(C(=O)O)CC1)C(C)C [compound 212] (Ac-D[dE]IV[Hyp](Bn)[Ac3c]-OH; C-terminus assumed) |  | > 300 µM | 0.21 µM | > 300 µM | 
CC[C@@H]1C[C@]1(NC(=O)[C@@H]1C[C@@H](OCc2cccc3ccccc23)CN1C(=O)[C@@H](NC(=O)[C@@H](NC(=O)[C@@H](CCC(=O)O)NC(=O)[C@H](CC(=O)O)NC(C)=O)C1CCCCC1)C(C)C)C(=O)O [compound 518] (Ac-D[dE][Chg]V[Hyp](CH2(1-naphthyl))[Acca(2-Et,1R,2R)]-OH) | > 300 µM |  |  |  | IC50 [1, 6]: 0.011 µM
CCC[C@H](NC(=O)[C@@H]1C[C@@H](OCc2ccccc2)CN1C(=O)[C@@H](NC(=O)[C@@H](NC(=O)[C@@H](CCC(=O)O)NC(=O)[C@H](CC(=O)O)NC(C)=O)[C@@H](C)CC)C(C)C)C(=O)O [compound 203] (Ac-D[dE]IV[Hyp](Bn)[Nva]-OH; C-terminus assumed) |  | > 300 µM | 0.6 µM | > 300 µM | IC50 (human liver cathepsin B; Table 2, marked **: human liver cathepsin B, read-out: Other (marked **)): > 300 µM
CC[C@@H]1C[C@]1(NC(=O)[C@@H]1C[C@@H](OCc2cccc3ccccc23)CN1C(=O)[C@@H](NC(=O)[C@@H](NC(=O)[C@@H](CCC(=O)O)NC(=O)[C@H](CC(=O)O)NC(C)=O)C1CCCCC1)C1CCCCC1)C(=O)O [compound 509] (Ac-D[dE][Chg][Chg][Hyp](CH2(1-naphthyl))[Acca(2-Et,1R,2R)]-OH) | > 300 µM |  |  |  | IC50 [1, 6]: 0.015 µM
